The conditions of data set [1]: pH 8.
The target of data set [2] is T1, cALDH-I (Rattus norvegicus, UniProt P51647).
T1 construct: His tag (pTrcHis vector) (N); made in house; host or cells: E. coli BL-21
T1 sequence (P51647 1-501): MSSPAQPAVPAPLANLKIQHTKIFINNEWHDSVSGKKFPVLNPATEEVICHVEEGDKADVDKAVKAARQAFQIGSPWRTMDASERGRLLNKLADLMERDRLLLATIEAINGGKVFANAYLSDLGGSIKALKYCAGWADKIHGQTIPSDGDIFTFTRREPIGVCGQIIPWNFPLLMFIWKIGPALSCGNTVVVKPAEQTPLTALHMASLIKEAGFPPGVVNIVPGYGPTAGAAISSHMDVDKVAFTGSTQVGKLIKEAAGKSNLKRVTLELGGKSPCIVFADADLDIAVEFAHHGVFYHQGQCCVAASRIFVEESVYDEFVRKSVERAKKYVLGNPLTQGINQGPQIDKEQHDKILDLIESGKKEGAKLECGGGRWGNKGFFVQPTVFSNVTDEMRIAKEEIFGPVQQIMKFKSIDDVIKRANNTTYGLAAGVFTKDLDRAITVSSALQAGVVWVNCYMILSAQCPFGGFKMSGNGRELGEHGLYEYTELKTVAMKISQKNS
It counts as binding.

Data set [3] addresses T1, cALDH-I. It counts as biochemical.
For data set [4], the target named is T1, cALDH-I. The conditions noted are these: read-out: Michealis constant Km, reported literature value; cited from earlier work.
The subject of another data set is rat testis proteome. The data set is classed as binding.

Molecules are shown by their SMILES. Where two headings read alike, the source gives them in different places.

Take `CCCCCCCCOS(=O)(=O)c1ccccn1` [Sulfonate 15, 1-(2-Pyridylsulfonyl)oxo-octane]: the “stability in reaction buffer” value in data set [1] is on record as “stable to the assay conditions employed”. Besides, the “blocking of the labeling of cALDH-I by 1” value at cALDH-I [2] was “effectively blocked the labeling of cALDH-I by 1”. Besides, on cALDH-I [3], the “average Kobs/[I]” value is listed as “(9.7+1.8)×10^3 M^−min^−”, the “cALDH-I inactivation (in words)” value is recorded as “completely inactivated” and the “effect of NAD^+ on inactivation of cALDH-I by 15” value is reported as “completely protected the enzyme from inactivation”.

On to `CCC=O` [propionaldehyde, reference compound], for which the values for the Km at cALDH-I [3] (read-out: Michealis constant Km) and at cALDH-I [4] were 4.2 µM and 6.5 µM, respectively.

`O=C(CCCCCCCCCOS(=O)(=O)c1ccccn1)NCCCCCNC(=O)CCCC[C@@H]1SC[C@@H]2NC(=O)N[C@@H]21` [sulfonate 1, 10-((2-pyridylsulfonyl)oxo)-N-biotinamidopentyldecanamide]: in the data set with rat testis proteome, the “specific (heat-sensitive) proteome reactivity” value was “labeled a 55 kDa protein and a 31 kDa protein”.

Turning to `O=C(CCCCCCCCCOS(=O)(=O)c1ccccc1)NCCCCCNC(=O)CCCCC1SCC2NC(=O)NC21` (stereo not drawn) [sulfonate 2, 10-((Benzenesulfonyl)oxo)-N-biotinamidopentyldecanamide], the “specific (heat-sensitive) proteome reactivity” value with rat testis proteome was “reacted with three of the four proteins labeled by 4 and 5”.

On to `Cc1ccc(S(=O)(=O)OCCCCCCCCCC(=O)NCCCCCNC(=O)CCCCC2SCC3NC(=O)NC32)cc1` (stereo not drawn) [sulfonate 3, 10-((p-Toluenesulfonyl)oxo)-N-biotinamidopentyldecanamide], for which, in the data set with rat testis proteome, the “specific (heat-sensitive) proteome reactivity” value is listed as “specifically labeled one 55 kDa protein”.

For `COc1ccc(S(=O)(=O)OCCCCCCCCCC(=O)NCCCCCNC(=O)CCCCC2SCC3NC(=O)NC32)cc1` (stereo not drawn) [sulfonate 4, 10-((4-Methoxybenzenesulfonyl)oxo)-N-biotinamidopentyldecanamide], in the data set on rat testis proteome, the “nonspecific (heat-insensitive) reactivity with the preheated proteome” value is on record as “showed significant additional reactivity with the preheated proteome” and the “specific (heat-sensitive) proteome reactivity” value was “labeled four members of the proteome in a heat-sensitive manner”.

Turning to `CS(=O)(=O)OCCCCCCCCCC(=O)NCCCCCNC(=O)CCCCC1SCC2NC(=O)NC21` (stereo not drawn) [sulfonate 5, 10-((Methylsulfonyl)oxo)-N-biotinamidopentyldecanamide], in the data set with rat testis proteome, the “nonspecific (heat-insensitive) reactivity with the preheated proteome” value was “showed significant additional reactivity with the preheated proteome” and the “specific (heat-sensitive) proteome reactivity” value is “labeled four members of the proteome in a heat-sensitive manner”.

For `CCCCS(=O)(=O)OCCCCCCCCCC(=O)NCCCCCNC(=O)CCCCC1SCC2NC(=O)NC21` (stereo not drawn) [sulfonate 6, 10-((Butylsulfonyl)oxo)-N-biontinamidopentyldecanamide], in the data set on rat testis proteome, the “specific (heat-sensitive) proteome reactivity” value was “specifically labeled one 55 kDa protein”.

On to `O=C(CCCCCCCCCOS(=O)(=O)c1ccc([N+](=O)[O-])cc1)NCCCCCNC(=O)CCCCC1SCC2NC(=O)NC21` (stereo not drawn) [sulfonate 8, 10-((4-Nitrobenzenesulfonyl)oxo)-N-biotinamidopentyldecanamide], for which the “specific (heat-sensitive) proteome reactivity” value with rat testis proteome is on record as “reacted specifically with a 55 kDa protein, as well as two additional proteins poorly labeled by the other reagents”.

Take `O=C(CCCCCCCCCOS(=O)(=O)c1cccc2cccnc12)NCCCCCNC(=O)CCCCC1SCC2NC(=O)NC21` (stereo not drawn) [sulfonate 9, 10-((8-Quinolinesulfonyl)oxo)-N-biotinamidopentyldecanamide]: the “specific (heat-sensitive) proteome reactivity” value in the data set with rat testis proteome was “reacted specifically with a 55 kDa protein, as well as two additional proteins poorly labeled by the other reagents”.

On to `O=C(CCCCCCCCCOS(=O)(=O)c1ccc2ccccc2c1)NCCCCCNC(=O)CCCCC1SCC2NC(=O)NC21` (stereo not drawn) [sulfonate 10, 10-((2-Naphthalenesulfonyl)oxo)-N-biotinamidopentyldecanamide], for which the “specific (heat-sensitive) proteome reactivity” value in the data set with rat testis proteome is recorded as “specifically labeled one 55 kDa protein”.

In the case of `O=C(CCCCCCCCCOS(=O)(=O)c1cccs1)NCCCCCNC(=O)CCCCC1SCC2NC(=O)NC21` (stereo not drawn) [sulfonate 11], the “specific (heat-sensitive) proteome reactivity” value in the data set on rat testis proteome is “reacted specifically with a 55 kDa protein, as well as two additional proteins poorly labeled by the other reagents”.

As for `CCOS(=O)(=O)c1ccccn1` [sulfonate 16, 1-(2-Pyridylsulfonyl)oxo-ethane], the “blocking of the labeling of cALDH-I by 1” value at cALDH-I [2] is “did not block the labeling of cALDH-I by 1”. On cALDH-I [3], the “% Activity Remaining” value was 42%; the “Kobs/[I]” value was determined as 0.00417 M⁻¹ s⁻¹; the “cALDH-I inactivation (in words)” value was “weak”; the “second order inhibition rate constant, times lower than that determined for 15” value was found to be 40000 times.

Turning to `CCCCCCCCOS(C)(=O)=O` [sulfonate 17, 1-(Methanesulfonyl)oxo-octane], at cALDH-I [2], the “blocking of the labeling of cALDH-I by 1” value is “did not block the labeling of cALDH-I by 1”. Besides, on cALDH-I [3], the “% Activity Remaining” value is on record as 100% and the “cALDH-I inactivation (in words)” value was “no inhibition”.

Values taken from patent publication US20050287594A1 (priority 2000, published 2005).
